Measured values taken from ChEMBL document CHEMBL6182902, “Design, synthesis, and discovery of cinnamoyl amide derivatives as potent NagZ inhibitors with antibacterial activity” (Eur J Med Chem, 2025).
The source made the active and inactive calls. The calls are words filed in the database; no cut-off is given here.

What was measured:
[1] = Inhibition of recombinant N-terminal His-tagged Escherichia coli BL21 NagZ extracted from Escherichia coli BL21 using pNP-GlcNAc as substrate by absorbance based assay
Escherichia coli = test: Inhibition of recombinant N-terminal His-tagged Escherichia coli BL21 NagZ extracted from Escherichia coli BL21 using pNP-GlcNAc as substrate at 100 uM by absorbance based assay relative to control
[2] = Inhibition of recombinant N-terminal His-tagged Escherichia coli BL21 NagZ extracted from Escherichia coli BL21 using different concentrations of substrate pNP-GlcNAc by 4-nitrophenolate ion release based spectrophotometric analysis
Pseudomonas aeruginosa [3] = test: Antibacterial activity against Pseudomonas aeruginosa ATCC 27853 infected in female KM mouse assessed as epithelial tissue proliferation in skin at 20 mg/kg, iv measured after 3 days; format: functional, organism-based; conditions: time 3.0 day
Pseudomonas aeruginosa [4] = test: Antibacterial activity against Pseudomonas aeruginosa ATCC 27853 infected in female KM mouse assessed as wound healing rate in skin at 20 mg/kg, iv measured after 3 days (reference value: 36.2 %); format: functional; conditions: time 3 day
Pseudomonas aeruginosa [5] = test: Antibacterial activity against Pseudomonas aeruginosa ATCC 27853 infected in female KM mouse assessed as wound healing rate in skin at 40 mg/kg, iv measured after 3 days (reference value: 36.2 %); format: functional; conditions: time 3 day
Pseudomonas aeruginosa [6] = test: Antibacterial activity against Pseudomonas aeruginosa ATCC 27853 infected in female KM mouse assessed as increase in wound contraction in skin at 40 mg/kg, iv measured after 3 days; format: functional, organism-based; conditions: time 3.0 day
Pseudomonas aeruginosa [7] = test: Antibacterial activity against Pseudomonas aeruginosa ATCC 27853 infected in female KM mouse assessed as epithelial tissue proliferation in skin at 40 mg/kg, iv measured after 3 days; format: functional, organism-based; conditions: time 3.0 day

SMILES	inhibition (Escherichia coli)	other results
O=C(/C=C/c1ccc(Br)cc1)N[C@@H](Cc1ccc(I)cc1)C(=O)O	81.2%	IC50 [1]: 119 µM; Ki [2]: 24.2 µM
O=C(/C=C/c1ccco1)N[C@@H](Cc1ccc(I)cc1)C(=O)O	35.8%	
O=C(/C=C/c1ccc(O)cc1)N[C@@H](Cc1ccc(I)cc1)C(=O)O	46.2%	
O=C(/C=C/c1ccc(F)c(F)c1)N[C@@H](Cc1ccc(I)cc1)C(=O)O	30.5%	
O=C(/C=C/c1ccc(Cl)c(Cl)c1)NC(Cc1ccc(Cl)cc1)C(=O)O (racemic)	77.1%	
O=C(/C=C/c1cccc(Cl)c1)N[C@@H](Cc1ccccc1)C(=O)O	19.9%	
O=C(/C=C/c1ccc(F)cc1)NC(Cc1ccc(Br)cc1)C(=O)O (racemic)	17.5%	
O=C(O[C@@H]1Cc2c(O)cc(O)cc2O[C@H]1c1cc(O)c(O)c(O)c1)c1cc(O)c(O)c(O)c1 [GALLOCATECHIN GALLATE]	54.9%	IC50 [1]: 64.3 µM
O=C(/C=C/c1ccc(I)cc1)N[C@@H](Cc1ccc(I)cc1)C(=O)O	85.5%	IC50 [1]: 110 µM; Ki [2]: 14.3 µM
COC(=O)[C@H](Cc1ccc(I)cc1)NC(=O)/C=C/c1ccc(F)cc1	14%	
COC(=O)[C@H](Cc1ccccc1)NC(=O)/C=C/c1cccc(Cl)c1	11.6%	
O=C(O[C@@H]1Cc2c(O)cc(O)cc2O[C@@H]1c1cc(O)c(O)c(O)c1)c1cc(O)c(O)c(O)c1 [EPIGALOCATECHIN GALLATE]	51.4%	IC50 [1]: 61.2 µM
O=C(/C=C/c1ccc([N+](=O)[O-])cc1)N[C@@H](Cc1ccc(I)cc1)C(=O)O	37.2%	
O=C(N[C@@H](Cc1ccc(I)cc1)C(=O)O)/C(=C/c1ccccc1)c1ccccc1	86.8%	IC50 [1]: 39.6 µM; Ki [2]: 15.5 µM
O=C(/C=C/c1ccc(I)cc1)N[C@H](Cc1ccc(Br)cc1)C(=O)O	76.1%	
O=C(/C=C/c1ccc(Cl)c(Cl)c1)N[C@@H](Cc1ccccc1)C(=O)O	50.4%	
O=C(/C=C/c1ccccc1)N[C@H](Cc1ccc(Br)cc1)C(=O)O	15.9%	
O=C(/C=C/c1ccc([N+](=O)[O-])o1)N[C@@H](Cc1ccc(I)cc1)C(=O)O	48.4%	
COC(=O)[C@H](Cc1ccc(I)cc1)NC(=O)/C=C/c1ccc(Cl)c(Cl)c1	inactive	

SMILES	inhibition (Escherichia coli)	other results
O=C(/C=C/c1ccccc1)N[C@@H](Cc1ccc(I)cc1)C(=O)O	20.2%	
O=C(/C=C/c1ccc2ccccc2c1)N[C@@H](Cc1ccc(I)cc1)C(=O)O	87%	IC50 [1]: 10.8 µM; Ki [2]: 7.4 µM
O=C(/C=C/c1ccc(Br)cc1)N[C@@H](Cc1ccccc1)C(=O)O	16.9%	
CC1(C)[C@@H](O)CC[C@]2(C)[C@H]3C(=O)C=C4[C@H]5C[C@@](C)(C(=O)O)CC[C@]5(C)CC[C@@]4(C)[C@]3(C)CC[C@@H]12 [18alpha-GLYCYRRHETINIC ACID]	69.6%	IC50 [1]: 75.5 µM
C[C@@H](O)[C@H]1C(=O)N2C(C(=O)O)=C(SCCNC=N)C[C@H]12 [IMIPENEM ANHYDROUS]		Activity (Pseudomonas aeruginosa [3]): Active; Activity (Pseudomonas aeruginosa [4]): 54.4%
O=C(O[C@@H]1Cc2c(O)cc(O)cc2O[C@@H]1c1ccc(O)c(O)c1)c1cc(O)c(O)c(O)c1 [EPICATECHIN GALLATE]	45.1%	IC50 [1]: 70.4 µM
O=C(/C=C\c1ccccc1)N[C@@H](Cc1ccc(I)cc1)C(=O)O	12%	
O=C(/C=C/c1ccc(F)c(Cl)c1)N[C@@H](Cc1ccc(I)cc1)C(=O)O	72%	
O=C(C#Cc1ccccc1)N[C@@H](Cc1ccc(I)cc1)C(=O)O	29.7%	
O=C(CCc1ccccc1)N[C@@H](Cc1ccc(I)cc1)C(=O)O	21.5%	
O=C(/C=C/c1ccc(O)c(O)c1)O[C@H](Cc1ccc(O)c(O)c1)C(=O)O [ROSMARINIC ACID]	64.3%	IC50 [1]: 56.1 µM
O=C(/C=C/c1ccc(Cl)cc1)N[C@H](Cc1ccc(Br)cc1)C(=O)O	49.8%	
O=C(/C=C/c1ccc(O)c(O)c1)N[C@@H](Cc1ccc(I)cc1)C(=O)O	66.5%	
COC(=O)[C@H](Cc1ccccc1)NC(=O)/C=C/c1ccc(Cl)c(Cl)c1	inactive	
CC1=C(O)C(=O)C=C2C1=CC=C1[C@@]2(C)CC[C@@]2(C)[C@@H]3C[C@](C)(C(=O)O)CC[C@]3(C)CC[C@]12C [CELASTROL]	50%	IC50 [1]: 62.8 µM
O=C(/C=C/c1c[nH]c2ccccc12)N[C@@H](Cc1ccc(I)cc1)C(=O)O	78.8%	IC50 [1]: 39.6 µM; Ki [2]: 15.5 µM
O=C(/C=C/c1ccc(Cl)cc1)N[C@@H](Cc1ccc(I)cc1)C(=O)O	75.7%	IC50 [1]: 182 µM; Ki [2]: 56.1 µM
O=C(O)[C@H](Cc1ccc(I)cc1)NC(=O)[C@H]1C[C@@H]1c1ccccc1	29.1%	
CC1(C)CC[C@]2(C(=O)O)CC[C@]3(C)C(=CC[C@@H]4[C@@]5(C)CC[C@H](O)[C@@](C)(CO)[C@@H]5CC[C@]43C)[C@@H]2C1 [HEDERAGENIN]	29.4%	IC50 [1]: 101 µM

SMILES	inhibition (Escherichia coli)	other results
O=C(/C=C/c1ccc(Cl)c(Cl)c1)N[C@H](Cc1ccc(Br)cc1)C(=O)O	87%	IC50 [1]: 6.3 µM; Ki [2]: 3.5 µM
COC(=O)[C@H](Cc1ccccc1)NC(=O)/C=C/c1ccc(Br)cc1	inactive	
O=C(/C=C/c1cccc([N+](=O)[O-])c1)N[C@@H](Cc1ccc(I)cc1)C(=O)O	42.1%	
O=C(/C=C/c1ccc(Cl)cc1)NC(Cc1ccc(Br)cc1)C(=O)O (racemic)	37.2%	
O=C(/C=C/c1ccc(F)cc1)N[C@@H](Cc1ccc(I)cc1)C(=O)O	34.3%	
O=C(/C=C/c1ccc(Br)cc1)N[C@H](Cc1ccc(Br)cc1)C(=O)O	46.5%	
O=C(/C=C/c1ccc(Cl)c(Cl)c1)NC(Cc1ccc(Br)cc1)C(=O)O (racemic)	86.1%	IC50 [1]: 36.5 µM; Ki [2]: 22.4 µM
O=C(/C=C/c1ccc(Cl)c(Cl)c1)N[C@@H](Cc1c[nH]c2ccccc12)C(=O)O	68.2%	
O=C(CCc1ccc(Cl)c(Cl)c1)N[C@@H](Cc1ccc(I)cc1)C(=O)O	73.5%	
C=CCc1ccc(O)c(-c2cc(CC=C)ccc2O)c1 [MAGNOLOL]	58.9%	IC50 [1]: 88.3 µM
CC(=O)N[C@H]1/C(=N/OC(=O)Nc2ccccc2)O[C@H](CO)[C@@H](O)[C@@H]1O [PUGNAC]		Ki [1]: 0.075 µM
COC(=O)C(Cc1ccc(Br)cc1)NC(=O)/C=C/c1ccc(Cl)cc1 (racemic)	inactive	
CC(C)(O/N=C(\C(=O)N[C@@H]1C(=O)N2C(C(=O)[O-])=C(C[n+]3ccccc3)CS[C@H]12)c1csc(N)n1)C(=O)O [CEFTAZIDIME]		Activity (Pseudomonas aeruginosa [5]): 62.2%; Activity (Pseudomonas aeruginosa [6]): Active; Activity Higher Than Imipenem; Activity (Pseudomonas aeruginosa [7]): Active
O=C(/C=C/c1c(Cl)cccc1Cl)N[C@@H](Cc1ccc(I)cc1)C(=O)O	76.9%	IC50 [1]: 84.9 µM; Ki [2]: 22.2 µM
COC(=O)C(Cc1ccc(Br)cc1)NC(=O)/C=C/c1ccc(F)cc1 (racemic)	7.2%	
O=C(/C=C/c1ccc(F)c(Cl)c1)N[C@H](Cc1ccc(Br)cc1)C(=O)O	71.6%	
COC(=O)C(Cc1ccc(Br)cc1)NC(=O)/C=C/c1ccc(Cl)c(Cl)c1 (racemic)	inactive	
O=C(/C=C/c1ccc([N+](=O)[O-])o1)N[C@H](Cc1ccc(Br)cc1)C(=O)O	38.2%	
O=C(/C=C/c1cc(F)c(F)c(F)c1)N[C@@H](Cc1ccc(I)cc1)C(=O)O	60.3%	
